pIC50: −log10 of the molar value. Converted amounts (≈) assume the structure as drawn. Where a name gives a salt, the structure may show the parent alone. Read-outs that look alike come from different tables or passages of the source.
How the values were obtained:
[1] = system: susceptible H37Rv M. tuberculosis, strain ATCC 25618; assay: Mycobacterium tuberculosis susceptibility assay REMA (resazurin microtiter assay); assay type: cell-based; set-up: REMA MIC: unit not given here; conditions: for MIC: Mycobacterium tuberculosis, 144 h, read-out: REMA MIC
HepG2 cell line = assay: in vitro cytotoxicity assay (MTS tetrazolium reduction, cell viability); assay type: cell-based; conditions: Homo sapiens, HepG2, 48 h
Protocol: In an embodiment, the in vitro cytotoxicity assay was carried out as follows. […] The assay was performed in 96 well plates for 48 h at 37° C. and 5% CO2 in incubation medium (low glucose DMEM with Glutamax, 10% FBS, 1% Pen/Strep and DMSO). Cells were exposed to 8 different compound concentrations in successive dilutions (usually, base 2), plus a positive control (a compound in a concentration known to decrease cell viability above 50%) and a negative control (incubation medium). Six replicate wells were assayed for each condition. Compound stock solutions were prepared in DMSO at 20 mM, whenever possible, filter sterilized, aliquoted and stored at −20° C. The maximum compound concentrations tested depend on its solubility in incubation medium, and on the maximum DMSO percentage allowable without loss of cell viability. At the end of the incubation period, tetrazolium reagent was added (CellTiter 96® AQueous Solution from Promega); cells were incubated for another 3 hours in order to promote tetrazolium reduction to formazan by viable cells. The amount of soluble formazan produced was evaluated by 490 nm absorbance reading in a spectrophotometer plate reader.

[2] = Table 1, MTB growth, H37Rv, 6 days at 37° C., Middlebrook 7H9
[3] = Table 2, MTB growth, H37Rv, 6 days at 37° C., Middlebrook 7H9
[4] = Table 1, cytotoxicity, MTS, read-out: IC50

COc1ccc(-c2ccc3nc(N4CCC(C(=O)O)CC4)ccc3c2)cc1 [Compound 21, 1-(6-(4-methoxyphenyl)quinolin-2-yl)piperidine-4-carboxylic acid]
MIC [1, 2]: < 7.8 µM | MIC [1, 3]: < 7.8 µM

CCOC(=O)C1CCN(c2ccc3cc(-c4ccccn4)ccc3n2)CC1 [Compound 55, ethyl 1-(6-(pyridin-2-yl)quinolin-2-yl)piperidine-4-carboxylate]
MIC [1, 2]: < 7.8 µM | MIC [1, 3]: < 7.8 µM

CCOC(=O)C1CCN(c2ccc3cc(-c4ccco4)ccc3n2)CC1 [Compound 16, ethyl 1-(6-(furan-2-yl)quinolin-2-yl)piperidine-4-carboxylate]
MIC [1, 2]: 7.8 to 15.6 µM (≈ 2.73 to 5.47 µg/mL) | pIC50 (HepG2 cell line; [4]): < 4.00

CCOC(=O)C1CCN(c2ccc3cc(-c4ccc(O)cc4)ccc3n2)CC1 [Compound 3, Ethyl 1-(6-(4-hydroxyphenyl)quinolin-2-yl)piperidine-4-carboxylate]
MIC [1, 2]: 7.8 to 15.6 µM (≈ 2.94 to 5.87 µg/mL) | pIC50 (HepG2 cell line; [4]): < 4.00

CCOC(=O)C1CCN(c2ccc3cc(-c4ccc(F)nc4)ccc3n2)CC1 [Compound 35, ethyl 1-(6-(6-fluoropyridin-3-yl)quinolin-2-yl)piperidine-4-carboxylate]
MIC [1, 2]: 7.8 to 15.6 µM (≈ 2.96 to 5.92 µg/mL) | pIC50 (HepG2 cell line; [4]): < 4.00

CCOC(=O)C1CCN(c2ccc3cc(-c4cccc(F)c4)ccc3n2)CC1 [Compound 74, ethyl 1-(6-(3-fluorophenyl)quinolin-2-yl)piperidine-4-carboxylate]
REMA MIC [1, 2]: +++ (7.8-15.6)

CCOC(=O)C1CCN(c2ccc3cc(-c4ccc(OC)nc4)ccc3n2)CC1 [Compound 14, ethyl 1-(6-(6-methoxypyridin-3-yl)quinolin-2-yl)piperidine-4-carboxylate]
MIC [1, 2]: < 7.8 µM | MIC [1, 3]: < 7.8 µM

CCOC(=O)C1CCN(c2ccc3cc(-c4ccc(OC)c(F)c4)ccc3n2)CC1 [Compound 58, ethyl 1-(6-(3-fluoro-4-methoxyphenyl)quinolin-2-yl)piperidine-4-carboxylate]
MIC [1, 2]: < 7.8 µM | MIC [1, 3]: < 7.8 µM

CCOC(=O)C1CCN(c2ccc3cc(-c4cccc(F)c4)ccc3n2)CC1 [Compound 8, ethyl 1-(6-(3-fluorophenyl)quinolin-2-yl)piperidine-4-carboxylate]
MIC [1, 2]: < 7.8 µM | MIC [1, 3]: < 7.8 µM

O=C(O)C1CCN(c2ccc3cc(-c4ccc(OC(F)(F)F)cc4)ccc3n2)CC1 [Compound 2, 1-(6-(4-(Trifluoromethoxy)phenyl)quinolin-2-yl)piperidine-4-carboxylic acid]
MIC [1, 2]: < 7.8 µM | MIC [1, 3]: < 7.8 µM

CCOC(=O)C1CCN(c2ccc3cc(-c4ccc(Cl)c(F)c4)ccc3n2)CC1 [Compound 63, ethyl 1-(6-(4-chloro-3-fluorophenyl)quinolin-2-yl)piperidine-4-carboxylate]
MIC [1, 2]: < 7.8 µM | MIC [1, 3]: < 7.8 µM

CCOC(=O)C1CCN(c2ccc3cc(-c4ccccc4C(F)(F)F)ccc3n2)CC1 [Compound 69, ethyl 1-(6-(2-(trifluoromethyl)phenyl)quinolin-2-yl)piperidine-4-carboxylate]
MIC [1, 2]: < 7.8 µM | MIC [1, 3]: < 7.8 µM

COc1ccc(-c2ccc3nc(N4CCC(C(=O)O)CC4)ccc3c2)c(Cl)c1 [Compound 23, 1-(6-(2-chloro-4-methoxyphenyl)quinolin-2-yl)piperidine-4-carboxylic acid]
MIC [1, 2]: 7.8 to 15.6 µM (≈ 3.1 to 6.19 µg/mL)

CCOC(=O)C1CCN(c2ccc3cc(-c4cnc(OC)nc4)ccc3n2)CC1 [Compound 4, ethyl 1-(6-(2-methoxypyrimidin-5-yl)quinolin-2-yl)piperidine-4-carboxylate]
MIC [1, 2]: < 7.8 µM | MIC [1, 3]: < 7.8 µM | pIC50 (HepG2 cell line; [4]): < 4.00 | pIC50 (HepG2 cell line; Table 2, cytotoxicity, MTS, read-out: IC50): < 4.00

CCOC(=O)C1CCN(c2ccc3cc(-c4ccc(OC)cc4Cl)ccc3n2)CC1 [Compound 19, ethyl 1-(6-(2-chloro-4-methoxyphenyl)quinolin-2-yl)piperidine-4-carboxylate]
MIC [1, 2]: < 7.8 µM | MIC [1, 3]: < 7.8 µM

CCOC(=O)C1CCN(c2ccc3cc(-c4ccccc4OC(F)(F)F)ccc3n2)CC1 [Compound 70, ethyl 1-(6-(2-(trifluoromethoxy)phenyl)quinolin-2-yl)piperidine-4-carboxylate]
MIC [1, 2]: < 7.8 µM

CCOC(=O)C1CCN(c2ccc3cc(-c4ccc(OC)c(C(F)(F)F)c4)ccc3n2)CC1 [Compound 72, ethyl 1-(6-(4-methoxy-3-(trifluoromethyl)phenyl)quinolin-2-yl)piperidine-4-carboxylate]
MIC [1, 2]: 7.8 to 15.6 µM (≈ 3.58 to 7.15 µg/mL)

CCOC(=O)C1CCN(c2ccc3cc(-c4ccc(OC)cc4)ccc3n2)CC1 [Compound 20, ethyl 1-(6-(4-methoxyphenyl)quinolin-2-yl)piperidine-4-carboxylate]
MIC [1]: 7.8 to 15.6 µM (≈ 3.05 to 6.09 µg/mL) | pIC50 (HepG2 cell line): < 4.00

CCOC(=O)C1CCN(c2ccc3cc(-c4cccc(OC)c4)ccc3n2)CC1 [Compound 30, ethyl 1-(6-(3-methoxyphenyl)quinolin-2-yl)piperidine-4-carboxylate]
MIC [1, 2]: 7.8 to 15.6 µM (≈ 3.05 to 6.09 µg/mL) | pIC50 (HepG2 cell line; [4]): < 4.00

CCOC(=O)C1CCN(c2ccc3cc(-c4cc5ccccc5s4)ccc3n2)CC1 [Compound 68, ethyl 1-(6-(benzo[b]thiophen-2-yl)quinolin-2-yl)piperidine-4-carboxylate]
MIC [1, 2]: 7.8 to 15.6 µM (≈ 3.25 to 6.5 µg/mL)

COc1cccc(-c2ccc3nc(N4CCC(C(=O)O)CC4)ccc3c2)c1 [Compound 22, 1-(6-(3-methoxyphenyl)quinolin-2-yl)piperidine-4-carboxylic acid]
MIC [1, 2]: 7.8 to 15.6 µM (≈ 2.83 to 5.65 µg/mL) | pIC50 (HepG2 cell line; [4]): < 4.00

O=C(O)C1CCN(c2ccc3cc(-c4cccc(OC(F)(F)F)c4)ccc3n2)CC1 [Compound 29, 1-(6-(3-(trifluoromethoxy)phenyl)quinolin-2-yl)piperidine-4-carboxylic acid]
MIC [1, 2]: < 7.8 µM | MIC [1, 3]: < 7.8 µM

CCOC(=O)C1CCN(c2ccc3cc(-c4ccncc4)ccc3n2)C1 (stereo not shown) [Compound 67, ethyl 1-(6-(pyridin-4-yl)quinolin-2-yl)pyrrolidine-3-carboxylate]
MIC [1, 2]: 7.8 to 15.6 µM (≈ 2.71 to 5.42 µg/mL)

O=C(O)C1CCN(c2ccc3cc(-c4ccncc4)ccc3n2)CC1 [Compound 18, 1-(6-(pyridin-4-yl)quinolin-2-yl)piperidine-4-carboxylic acid hydrochloride]
MIC [1]: 7.8 to 15.6 µM

CCOC(=O)C1CCN(c2ccc3cc(-c4cccc(Cl)c4)ccc3n2)CC1 [Compound 64, ethyl 1-(6-(3-chlorophenyl)quinolin-2-yl)piperidine-4-carboxylate]
MIC [1, 2]: 7.8 to 15.6 µM (≈ 3.08 to 6.16 µg/mL)

CCOC(=O)C1CCN(c2ccc3cc(-c4ccnc(F)c4)ccc3n2)CC1 [Compound 37, ethyl 1-(6-(2-fluoropyridin-4-yl)quinolin-2-yl)piperidine-4-carboxylate]
MIC [1, 2]: 7.8 to 15.6 µM (≈ 2.96 to 5.92 µg/mL) | pIC50 (HepG2 cell line; [4]): 4.00 to 4.30

CCOC(=O)C1CCN(c2ccc3cc(-c4ccc(C)nc4)ccc3n2)CC1 [Compound 50, ethyl 1-(6-(6-methylpyridin-3-yl)quinolin-2-yl)piperidine-4-carboxylate]
MIC [1, 2]: < 7.8 µM | MIC [1, 3]: < 7.8 µM

CCOC(=O)C1CCN(c2ccc3cc(-c4cccc(OC(F)(F)F)c4)ccc3n2)CC1 [Compound 25, ethyl 1-(6-(3-(trifluoromethoxy)phenyl)quinolin-2-yl)piperidine-4-carboxylate]
MIC [1, 2]: < 7.8 µM | MIC [1, 3]: < 7.8 µM

CCOC(=O)C1CCCN(c2ccc3cc(-c4ccncc4)ccc3n2)C1 (stereo not shown) [Compound 54, ethyl 1-(6-(pyridin-4-yl)quinolin-2-yl)piperidine-3-carboxylate]
MIC [1, 2]: 7.8 to 15.6 µM (≈ 2.82 to 5.64 µg/mL) | pIC50 (HepG2 cell line; [4]): < 4.00

O=C(O)C1CCN(c2ccc3cc(-c4cccc(F)c4)ccc3n2)CC1 [Compound 11, 1-(6-(3-fluorophenyl)quinolin-2-yl)piperidine-4-carboxylic acid]
MIC [1, 2]: < 7.8 µM | MIC [1, 3]: < 7.8 µM

CCOC(=O)C1CCN(c2ccc3cc(-c4ccncc4)ccc3n2)CC1 [Compound 15, ethyl 1-(6-(pyridin-4-yl)quinolin-2-yl)piperidine-4-carboxylate hydrochloride]
MIC [1]: 7.8 to 15.6 µM | pIC50 (HepG2 cell line): < 4.00

CCOC(=O)C1CCN(c2ccc3cc(-c4ccc(F)cc4OC)ccc3n2)CC1 [Compound 71, ethyl 1-(6-(4-fluoro-2-methoxyphenyl)quinolin-2-yl)piperidine-4-carboxylate]
MIC [1, 3]: < 7.8 µM

CC(C)Oc1ccc(-c2ccc3nc(N4CCC(C(=O)O)CC4)ccc3c2)cc1F [Compound 10, 1-(6-(3-fluoro-4-isopropoxyphenyl)quinolin-2-yl)piperidine-4-carboxylic acid]
MIC [1, 2]: < 7.8 µM | MIC [1, 3]: < 7.8 µM

CCOC(=O)C1CCN(c2ccc3cc(-c4cc(OC)cc(OC)c4)ccc3n2)CC1 [Compound 41, ethyl 1-(6-(3,5-dimethoxyphenyl)quinolin-2-yl)piperidine-4-carboxylate]
MIC [1, 2]: 7.8 to 15.6 µM (≈ 3.28 to 6.56 µg/mL) | pIC50 (HepG2 cell line; [4]): 4.00 to 4.30

CCOC(=O)C1CCN(c2ccc3cc(-c4ccc(F)c(Cl)c4)ccc3n2)CC1 [Compound 75, ethyl 1-(6-(3-chloro-4-fluorophenyl)quinolin-2-yl)piperidine-4-carboxylate]
MIC [1, 2]: 7.8 to 15.6 µM (≈ 3.22 to 6.44 µg/mL)

CCOC(=O)C1CCN(c2ccc3cc(-c4ccc(OC)cc4C(F)(F)F)ccc3n2)CC1 [Compound 24, ethyl 1-(6-(4-methoxy-2-(trifluoromethyl)phenyl)quinolin-2-yl)piperidine-4-carboxylate hydrochloride]
MIC [1]: < 7.8 µM | REMA MIC [1, 3]: ++++ (<7.8)
